From patent publication US20250304623A1, “PEPTIDES FOR INTRACELLULAR DELIVERY” (UNIVERSIDADE DE SANTIAGO DE COMPOSTELA, priority 2022, published 2025)
*: point of attachment. NHNH2 = NN*

Columns and labels:
Type in all cases: cell-based
[1] = system: Hek293 cells expressing EGFP; assay: Cas9-RNP delivery against EGFP (gene editing, plate reader), Hek293
Protocol: (§1) To generate an EGFP expressing HeLa cell line, HeLa cells were transfected with EGFP pDNA (pEGFP-C1, Clontech) and stable transfectants were selected with 400 μg/mL of G-418 (Millipore). Green clones were selected by epifluorescence microscopy and tested for EGFP expression stability through several passages. […] All other EGFP-expressing cell lines were obtained in a similar way from parent non-EGFP-expressing cell lines.
Cells expressing EGFP were seeded in a 96 well plate the day before the experiment at a concentration of 50,000 cell/mL (100 μL/w) in DMEM+10% FBS+1% Gln-Abt. For robotic library screening, the delivery of Cas9-RNP against EGFP (RNP designed to knock-out the gene encoding for the enhanced green fluorescent protein (EGFP)) was performed. For RNP assembly, 9.2 μL of crRNA and 9.2 μL of tracrRNA were mixed in 211.6 μL of Nuclease-Free Duplex Buffer (IDT), incubated for 5 min at 95° C. and slowly cooled at rt (see I. Lostalé-Seijo, et al. Peptide/Cas9 nanostructures for ribonucleoprotein cell membrane transport and gene edition, Chem. Sci., 2017). Cas9 protein was dissolved in DMEM at a final concentration of 4 μM and equal volumes of the RNA complex and Cas9 were mixed and incubated for 5 min at rt. 75 μL of the corresponding amphiphile concentrations were added to 5 μL of RNP at 2 μM. The mixture was shaken for 30 min at room temperature before the addition to the cells. The cell medium was aspirated, and cells were washed twice with PBS. Cells were covered with 30 μL of DMEM and 20 μL of the RNP/amphiphile complexes were added to the cells (final peptide concentrations=2.5, 5 and 10 μM; final Cas9-RNP concentration=50 nM) and incubated for 4 h. After the incubation, the medium was replaced by 100 μL of fresh DMEM supplemented with 10% FBS. The total EGFP fluorescence was quantified after 72 h in a plate reader (FIG. 2, Table 1 (right) and Table 6). All experiments were done in triplicate. […]
(§2) Tables 26-31 show the mean (triplicates) percentage of gene editing, accounted by GFP fluorescence intensity decrease (% of reduction), measured after the transfection of Cas9-RNP by different amphiphiles at different concentrations in a variety of cell lines. Background values, accounted by untreated control cells, were subtracted for processing.

[2] = system: Hek293 cells expressing EGFP; assay: EGFP-targeting siRNA delivery (GFP silencing vs siMOCK), Hek293
Protocol: as §1
Cells expressing EGFP were seeded in a 96 well plate the day before the experiment at a concentration of 50,000 cell/mL (100 μL/w) in DMEM+10% FBS+1% Gln-Abt. For robotic library screening, the delivery of an EGFP-targeting siRNA (EGFP: enhanced green fluorescent protein, Ambion® Silencer® GFP Positive Control siRNA (siGFP) (AM4626)) in six different cell lines expressing EGFP was performed. […] The mixture was shaken for 30 min at room temperature (rt) before the addition to the cells. The cell medium was aspirated, and cells were washed twice with PBS. Finally, 50 μL of the solution of siRNA/amphiphile complexes were added to the cells and incubated for 4 h. After transfection, the medium was replaced by 100 μL of fresh DMEM supplemented with 10% FBS. The fluorescence knockdown was quantified after 72 h in a plate reader, by comparison with cells transfected with a non-targeting siRNA control (siMOCK, Silencer™ Negative Control No. 1 siRNA (siMOCK) (AM4611)). EGFP knockdown was compared with Lipofectamine® RNAiMAX silencing efficiency (30-60% depending on cell line, defined with a numeric value in the below tables). All experiments were done in triplicate.
Tables 1-7: RLuc (pDNA) or EGFP (mRNA) expression levels were normalized to Lipofectamine reagents (value=1) and expressed as fold-times signal increase. In the case of siRNA, the siRNA treated cells fluorescence was compared with siMOCK control fluorescence, while Cas9-RNP mediated knockout was measured against the fluorescence of untreated cells. In both siRNA and Cas9-RNP, values are expressed as % fluorescence reduction. Amphiphile concentration was 5 μM in all cases. All experiments were performed in triplicate.
as §2, with “20-25” for “26-31”, “GFP-silencing,” for “gene editing,”, “by” for “by GFP”, “relative to a non-targeting siRNA (siMOCK) control,” for “(% of reduction),”, “siRNA” for “Cas9-RNP”

A549 cells = assay: RLuc pDNA delivery, robotic library screening, A549
Method in brief: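 A549 cells in DMEM+10% FBS were washed twice with PBS and exposed for 4 h to amphiphile/RLuc pDNA complexes prepared from DMSO stocks diluted in DMEM. After medium replacement and 72 hours, cells in HBSS were incubated at 37° C. for 30 minutes, basal then total luminescence measured after 5 μM coelenterazine h; background from untransfected cells was subtracted.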

Ac-RRLK*RLLRRLK*RL-NH2 (Ac-RRLK(NHNH2)RLLRRLK(NHNH2)RL-NH2; not fully specified; printed as Ac-RRLK*RLLRRLK*RL-NH2; also: K*4,K*11: native or modified lysine (ε-amide to a linker)) [Peptide 13.2]
percentage of gene editing, GFP fluorescence intensity decrease (% of reduction) ([1]; Dodecanal, 5 μM): −23%
percentage of gene editing, GFP fluorescence intensity decrease (% of reduction) ([1]; Dodecanal, 10 μM): −26%
percentage of gene editing, GFP fluorescence intensity decrease (% of reduction) ([1]; Oleyl, 10 μM): −10%
percentage of gene editing, GFP fluorescence intensity decrease (% of reduction) ([1]; Oleyl, 15 μM): −13%
percentage of GFP-silencing relative to siMOCK ([2]; Oleyl, 10 μM): −7%
percentage of GFP-silencing relative to siMOCK ([2]; Oleyl, 15 μM): 17%
mean luminescent intensity (RLuc pDNA) (A549 cells; Oleyl, 5 μM): 2368 RLU
mean luminescent intensity (RLuc pDNA) (A549 cells; Oleyl, 10 μM): 1152 RLU
mean luminescent intensity (RLuc pDNA) (A549 cells; Oleyl, 15 μM): 1367 RLU

Ac-RRLK*RLLRRLK*RLK*RRL-NH2 (Ac-RRLK(NHNH2)RLLRRLK(NHNH2)RLK(NHNH2)RRL-NH2; not fully specified; printed as Ac-RRLK*RLLRRLK*RLK*RRL-NH2; also: K*4,K*11,K*14: native or modified lysine (ε-amide to a linker)) [Peptide 17.3]
percentage of gene editing, GFP fluorescence intensity decrease (% of reduction) ([1]; Palmitoleyl, 5 μM): −19%
percentage of gene editing, GFP fluorescence intensity decrease (% of reduction) ([1]; Palmitoleyl, 10 μM): −32%
percentage of gene editing, GFP fluorescence intensity decrease (% of reduction) ([1]; Palmitoleyl, 15 μM): −34%
percentage of gene editing, GFP fluorescence intensity decrease (% of reduction) ([1]; Petroselinyl, 5 μM): 2%
percentage of gene editing, GFP fluorescence intensity decrease (% of reduction) ([1]; Petroselinyl, 10 μM): −37%
percentage of GFP-silencing relative to siMOCK ([2]; Myristoleyl, 10 μM): 48%
percentage of GFP-silencing relative to siMOCK ([2]; Oleyl, 15 μM): 25%
percentage of GFP-silencing relative to siMOCK ([2]; Palmitoleyl, 10 μM): 37%
percentage of GFP-silencing relative to siMOCK ([2]; Petroselinyl, 5 μM): 9%
percentage of GFP-silencing relative to siMOCK ([2]; Petroselinyl, 15 μM): 52%
mean luminescent intensity (RLuc pDNA) (A549 cells; Dodecanal, 10 μM): 1381 RLU
mean luminescent intensity (RLuc pDNA) (A549 cells; Dodecanal, 15 μM): 1660 RLU
mean luminescent intensity (RLuc pDNA) (A549 cells; Myristoleyl, 10 μM): 1545 RLU
mean luminescent intensity (RLuc pDNA) (A549 cells; Myristoleyl, 15 μM): 2581 RLU
mean luminescent intensity (RLuc pDNA) (A549 cells; Oleyl, 10 μM): 1201 RLU
mean luminescent intensity (RLuc pDNA) (A549 cells; Oleyl, 15 μM): 1552 RLU
mean luminescent intensity (RLuc pDNA) (A549 cells; Palmitoleyl, 5 μM): 2518 RLU
mean luminescent intensity (RLuc pDNA) (A549 cells; Palmitoleyl, 15 μM): 2585 RLU
mean luminescent intensity (RLuc pDNA) (A549 cells; Petroselinyl, 15 μM): 2614 RLU
